From patent publication US20200405752A1, “ANTITUMOR AGENT, ANTITUMOR EFFECT ENHANCER, AND ANTITUMOR KIT” (FUJIFILM Corporation, priority 2018, published 2020)
pIC50: −log10 of the molar value. Like-named read-outs stand apart in the source and are kept apart here.

Test system: human pancreatic cancer-derived cell line SUIT-2
Assay: Cell viability (CellTiter Glo, intracellular ATP) of SUIT-2 in combination with cisplatin or oxaliplatin
Type: cell-based
Details: for viability at 0.0015 µM / viability at 0.0046 µM / viability at 0.0137 µM / viability at 0.0412 µM / viability at 0.1235 µM / viability at 0.3704 µM / viability at 1.1111 µM / viability at 3.3333 µM / viability at 10 µM / viability at 0.001 µM / viability at 0.003 µM / viability at 0.01 µM / viability at 0.03 µM / viability at 0.1 µM / viability at 0.3 µM / viability at 1 µM / viability at 3 µM / pIC50: Homo sapiens; for viability at 0.0015 µM / viability at 0.0046 µM / viability at 0.0137 µM / viability at 0.0412 µM / viability at 0.1235 µM / viability at 0.3704 µM / viability at 1.1111 µM / viability at 3.3333 µM / viability at 10 µM / viability at 0.001 µM / viability at 0.003 µM / viability at 0.01 µM / viability at 0.03 µM / viability at 0.1 µM / viability at 0.3 µM / viability at 1 µM / viability at 3 µM: SUIT-2, 72 h, 3 days; for viability at 0.0015 µM / viability at 0.0046 µM / viability at 0.0137 µM / viability at 0.0412 µM / viability at 0.1235 µM / viability at 0.3704 µM / viability at 1.1111 µM / viability at 3.3333 µM / viability at 10 µM / viability at 0.001 µM / viability at 0.003 µM / viability at 0.01 µM / viability at 0.03 µM / viability at 0.1 µM / viability at 0.3 µM / viability at 1 µM / viability at 3 µM / combination index (CI): SUIT-2; for viability at 0.0015 µM: test substance 1.5 nM; for viability at 0.0046 µM: test substance 4.6 nM; for viability at 0.0137 µM: test substance 13.7 nM; for viability at 0.0412 µM: test substance 41.2 nM; for viability at 0.1235 µM: test substance 123.5 nM; for viability at 0.3704 µM: test substance 370.4 nM; for viability at 1.1111 µM: test substance 1111.1 nM; for viability at 3.3333 µM: test substance 3333.3 nM; for viability at 0.001 µM: test substance 1 nM; for viability at 0.003 µM: test substance 3 nM; for viability at 0.01 µM: test substance 10 nM; for viability at 0.03 µM: test substance 30 nM; for viability at 0.1 µM: test substance 100 nM; for viability at 0.3 µM: test substance 300 nM; for viability at 1 µM: test substance 1000 nM; for viability at 3 µM: test substance 3000 nM; for pIC50: SUIT-2, SUIT-2, read-out: IC50 value (concentration that inhibits cell viability by 50%); for combination index (CI): CI<1 synergistic
Source text: Evaluation of antitumor activity against human pancreatic cancer-derived cell line SUIT-2 by combination use of cisplatin and oxaliplatin
Gemcitabine (hereinafter, also referred to as Gem), cisplatin, oxaliplatin, and methanesulfonate of Compound A were used as test substances.
Gemcitabine hydrochloride (manufactured by Plantex Co., Ltd.) dissolved in dimethyl sulfoxide (DMSO) was used as gemcitabine. Cisplatin (Cat. #039-20091, manufactured by Wako Pure Chemical Industries, Ltd.) and oxaliplatin (Cat. #00372, manufactured by Tokyo Chemical Industry Co., Ltd.), each of which dissolved in serum-free RPMI-1640 medium (Cat. #11875-119, manufactured by Thermo Fisher Scientific Inc.), were used as cisplatin and oxaliplatin, respectively.
Human pancreatic cancer cell line SUIT-2 cells were subcultured in RPMI-1640 medium supplemented with 10% serum (Cat. #10437-028, manufactured by Thermo Fisher Scientific Inc.). During this test, all cell cultures were carried out in a CO2 incubator (set to 37° C. and 5% CO2, saturated with water vapor). The culture was diluted with a 10% serum-supplemented medium to a cell density of 15000 cells/well/100 μL and the cells were seeded on a 96-well plate. On the next day, the culture supernatant of each well was discarded, followed by washing twice with 150 μL of serum-free medium, and 100 μL of serum-free medium was added thereto, followed by culturing for 3 days.
The methanesulfonate of Compound A and gemcitabine were dissolved in DMSO to prepare 100 mmol/L DMSO solutions thereof. The thus-prepared DMSO solutions were diluted sequentially with DMSO to prepare DMSO solutions having a final treatment concentration of 1000-fold dilution. Cisplatin and oxaliplatin were dissolved in serum-free medium to prepare a cisplatin solution 30 μmol/L and an oxaliplatin solution 60 μmol/L, respectively. The DMSO diluted solutions of Compound A and gemcitabine were diluted with the cisplatin solution (30 μmol/L) or the oxaliplatin solution (60 μmol/L) to prepare treatment liquids having a final treatment concentration of 6-fold dilution. Compound A and gemcitabine were used with a maximum concentration of 10 μmol/L at a common ratio of 1/3 and 9 concentrations in combination with cisplatin or oxaliplatin.
20 μL of Compound A or gemcitabine diluted with the cisplatin solution (30 μmol/L) or the oxaliplatin solution (60 μmol/L) was added to each well. In addition, a group in which only a solvent containing no drug was added to wells in which cells were seeded (positive control), and a group in which only a solvent containing no drug was added to wells containing only a medium (negative control) were provided. All groups were set to n=3 well.
The cells were cultured for 3 days after the addition of the drug, and the cell viability was evaluated using a CellTiter Glo (registered trademark) Reagent (Cat. #G7570, manufactured by Promega Corporation) with the intracellular ATP level as an index. The concentration that inhibits cell viability by 50% (IC50 value) was calculated using XLFit software Ver.3 (registered trademark, manufactured by CTC Laboratory Systems Corporation).
The cell viability of each well was determined with the luminescence signal level of the negative control being 0% cell viability and the luminescence signal level of the positive control being 100% cell viability. The average value and standard deviation of the cell viability of each treatment group were calculated to prepare Table 1 and Table 2.
On the combinational effect of the embodiment of the invention, the results of evaluation using a combination index (CI) which is a quantitative index of the combinational effect are shown. The CI can be calculated by the following equation according to Cancer Research, 2010, Vol. 70, pp. 440 to 446.
That is, in a case where the drugs to be used in combination are drug 1 and drug 2, the CI at a certain drug concentration is […]

[1] = with cisplatin 5 μmol/L, test substance 10000.0 nM
[2] = with oxaliplatin 10 μmol/L, test substance 10000 nM
[3] = used in combination with cisplatin (5 μmol/L, Table 1)
[4] = used in combination with oxaliplatin (10 μmol/L, Table 2)

| Compound | viability at 0.0015 µM (with cisplatin 5 μmol/L) [%] | viability at 0.0046 µM (with cisplatin 5 μmol/L) [%] | viability at 0.0137 µM (with cisplatin 5 μmol/L) [%] | viability at 0.0412 µM (with cisplatin 5 μmol/L) [%] | viability at 0.1235 µM (with cisplatin 5 μmol/L) [%] | viability at 0.3704 µM (with cisplatin 5 μmol/L) [%] | viability at 1.1111 µM (with cisplatin 5 μmol/L) [%] | viability at 3.3333 µM (with cisplatin 5 μmol/L) [%] | viability at 10 µM [1] [%] | viability at 0.001 µM (with oxaliplatin 10 μmol/L) [%] | viability at 0.003 µM (with oxaliplatin 10 μmol/L) [%] | viability at 0.01 µM (with oxaliplatin 10 μmol/L) [%] | viability at 0.03 µM (with oxaliplatin 10 μmol/L) [%] | viability at 0.1 µM (with oxaliplatin 10 μmol/L) [%] | viability at 0.3 µM (with oxaliplatin 10 μmol/L) [%] | viability at 1 µM (with oxaliplatin 10 μmol/L) [%] | viability at 3 µM (with oxaliplatin 10 μmol/L) [%] | viability at 10 µM [2] [%] | pIC50 [3] | pIC50 [4] | also measured |
| --- | --- | --- | --- | --- | --- | --- | --- | --- | --- | --- | --- | --- | --- | --- | --- | --- | --- | --- | --- | --- | --- |
| Nc1ccn([C@@H]2S[C@H](CO)[C@@H](O)[C@@H]2F)c(=O)n1 [Compound A, 1-(2-deoxy-2-fluoro-4-thio-β-D-arabinofuranosyl)cytosine] | 96 | 80 | 47 | 33 | 28 | 28 | 26 | 27 | 30 | 94 | 93 | 87 | 60 | 46 | 41 | 38 | 39 | 38 | 7.89 | 7.13 | combination index (CI) (combination with cisplatin): 0.36; combination index (CI) (combination with oxaliplatin): 0.44 |
| Nc1ccn([C@@H]2O[C@H](CO)[C@@H](O)C2(F)F)c(=O)n1 [Gemcitabine] | 98 | 97 | 99 | 94 | 82 | 73 | 54 | 32 | 22 | 98 | 102 | 97 | 97 | 101 | 96 | 89 | 80 | 61 | 5.94 | ≤ 5.00 | combination index (CI) (combination with cisplatin): 0.96; combination index (CI) (combination with oxaliplatin): 0.97 |
